In a melting point compilation (Tetko et al.; mined from patent text by program, amines drawn as free bases though some values may be those of a salt) one finds melting point data, which are given here for 87 compounds.

Structures are written as SMILES. A value given as a limit tells only on which side of the number the result lay.

As a reminder, the melting point is the temperature of the solid-liquid transition.

In the case of `OCC1CCCN1c1cc(N2CCOCC2)nc(-n2c(C(F)F)nc3c(O)cccc32)n1` (configuration not stated), the melting point lay in the range of 195 to 198 °C.

With `O=C(COc1ccccc1)Nc1c(Cl)ccc2nc(N3CC[C@@H](O)C3)ccc12`, the melting point lay within 233 to 235 °C.

`COc1ccc2cc3c(c(-c4ccc5c(c4)OCO5)c2c1OC)CNC3=O` gave a melting point of 255 to 256 °C.

`CCCCc1ncc(C(=O)OCC)c(N(C)Cc2ccc(-c3ccccc3-c3nnn[nH]3)cc2)n1` yielded a melting point of 159 to 161 °C.

`Cc1[nH]c(C#N)c(C)c1-c1nc2ccc(Oc3ccccc3)cc2[nH]1` showed a melting point of 278 to 280 °C.

As to `CCOC(=O)c1nn(-c2ccccc2Cl)c(=O)c(C#N)c1C`, the melting point fell in the range of 93 to 95 °C.

For `COCC1CN(C(=O)c2cc(OC)c(OC)c(OC)c2)CCN1C(=O)c1csc(-c2ccc(OC)c(OC)c2)n1` (configuration not stated), the melting point lay in the range of 149 to 151 °C.

`Clc1ccc(Cn2cnc3ccc(Cl)nc32)c(Cl)c1`: the melting point is 149 to 150 °C.

`COc1ccc(S(=O)(=O)Nc2cccnc2Nc2ccc(C)cc2)cc1` displayed a melting point of 188 to 189 °C.

Take `O=C(N[C@@H](Cc1ccccc1)C(=O)Oc1cc(Cl)c(Cl)cc1Cl)OCc1ccccc1`: the melting point lay within 139 to 140 °C.

For the compound `O=C(CSc1ccc(C(F)(F)F)cc1C(=O)O)c1ccccc1`, the melting point lay in the range of 128 to 130 °C.

For `COc1ccc(COc2cccc(C(=O)O)c2OCc2ccc(OC)cc2)cc1`, the melting point was 129 °C.

As to `CCCCCCCCCCCCCCCCCCOc1ccccc1CC(=O)CO`, the melting point was 59 to 60 °C.

Turning to `COCC#Cc1ncn2c1CN(C)C(=O)c1ccccc1-2`, the melting point is 114 to 115 °C.

`CC1(C)CCC(C)(C)c2c(CC#Cc3ccc(C(=O)O)cc3)cc(-c3ccccc3)cc21` registered a melting point of 228 °C.

In the case of `CCCCn1nc(C)c(C(=O)OC)c1Cc1ccc(-c2ccccc2S(N)(=O)=O)cc1`, the melting point lay within 49 to 54 °C.

`COC(=O)c1ccc(-c2nc(-c3cc(C)oc3C)cs2)cc1` returned a melting point of 103 to 105 °C.

For `CCCN[C@@H](Cc1ccc(OCCNC(=O)c2ccc(-c3ccccn3)cc2)cc1)C(=O)O`, the melting point fell in the range of 242 to 244 °C.

`O=C1CCCN1C(=O)Oc1ccc(F)cc1` registered a melting point of 89 to 90 °C.

`CCOC(=O)c1cnc(CC)nc1NCc1ccc(-c2ccccc2-c2nnn[nH]2)cc1` came in with a melting point of 114 to 116 °C.

`Cc1c(C)c2c(c(C)c1OCc1ccccc1)C(=O)C(C)(C)O2` yielded a melting point of 114 to 115 °C.

In turn, `CCOC(=O)C(Cc1ccc(C(=O)C(C)(C)C)cc1)(Cc1ccc(C(=O)C(C)(C)C)cc1)C(=O)OCC` came in with a melting point of 65 to 67 °C.

`COc1cc2ccc(-c3cc4c(cc3[N+](=O)[O-])OCO4)c([N+](=O)[O-])c2cc1OC` had a melting point of 187 to 189 °C.

In the case of `CC(C)(C)OC(=O)Nc1ccc(-c2ccc(Cl)c(Cl)c2)cc1N`, the melting point is 169 to 171 °C.

As to `CCCCN1C(=O)NC(CCC(=O)O)C1=O` (configuration not stated), the melting point is 130 °C.

In turn, `Cn1cc(C(=O)CCn2ccnc2)c2ccccc21` registered a melting point of 121 to 123 °C.

`CCOC(=O)COc1ccc(SCc2cccc3nc(-c4ccc(C(F)(F)F)cc4)oc23)cc1C` displayed a melting point of 180 to 182 °C.

Compound `Cc1cncc(CNC(=O)c2sc(N3CCN(CCCC(F)(F)F)C3=O)nc2C)n1` registered a melting point of 123 °C.

In turn, `OC1(C(c2ccccc2F)n2cccc2)CCN(Cc2ccccc2)C1` (configuration not stated) showed a melting point of 87 to 89 °C.

The compound `NNC(=O)c1ncnc2[nH]ccc12` displayed a melting point of 252 to 254 °C.

Regarding `Cc1ccc2c(c1)N(C(=O)CN(C)C)c1ccccc1S(=O)(=O)N2C`, the melting point fell in the range of 135 to 137 °C.

In turn, `O=C1C=CCC(CCc2ccccc2)(c2ccccc2)O1` (configuration not stated) showed a melting point of 130 °C.

`CC1Sc2c(C(=O)O)c(=O)c3cc(F)c(N4CCNCC4)cc3n21` (configuration not stated) showed a melting point of 225 to 227 °C.

`Cn1ncnc1COCc1cccc(-n2cnc3cc(C(F)(F)F)ccc32)c1`: the melting point fell in the range of 121 to 124 °C.

`Cc1cc2c(=O)n(CCN(Cc3ccc4c(c3)NC(=O)C(C)(C)C(=O)N4CC3CC3)Cc3cccnc3C)ccc2o1` yielded a melting point of 138 to 143 °C.

In the case of `O=c1c2ccccc2ncn1CCN1CCC(Nc2nc3ccccc3n2Cc2ccc(F)cc2)CC1`, the melting point stood at 191 °C.

The compound `COc1ccc(C(=O)c2coc3ccccc23)cc1` registered a melting point of 89 to 90 °C.

Turning to `CC(Cc1ccc(F)cc1)(NC(=O)CN)c1ccc(F)cc1` (configuration not stated), the melting point lay in the range of 130 to 131 °C.

The compound `CC(C)=CCc1cc(C(=O)C=Cc2ccc(O)cc2)c(O)cc1O` had a melting point of 157 to 158 °C.

Compound `O=C(CCCCNC(=O)c1cn2c3c(cccc13)CCC2)NO` came in with a melting point of 179 to 181 °C.

The compound `CCc1c(OC)cc2c(c1O)C(=O)C[C@H]1CCN(C)C[C@@H]21` (relative stereo) had a melting point of 221 to 223 °C.

In turn, `O=C(OCC(Cl)(Cl)Cl)N1CCCC(C(=O)OCc2ccccc2)(C(=O)OCc2ccccc2)C1` had a melting point of 76 °C.

With `O=C1N(CC2CCCO2)c2ccc(F)cc2C12COc1cc3c(cc12)CCO3` (configuration not stated), the melting point was in the range of 167 to 169 °C.

In the case of `CC12CCC3c4cc([N+](=O)[O-])c(OCc5ccccc5)cc4CCC3C1CCC2=O` (configuration not stated), the melting point is 234 to 235 °C.

The compound `CCCCc1nc(SC)c(C(=O)OCC)n1Cc1ccc(-c2ccc(S(=O)(=O)NC#N)cc2)cc1` had a melting point of 244 °C.

`CCCCCCCC(=O)NC(=O)OCc1nc(C(C)C)c(Sc2cc(Cl)cc(Cl)c2)n1CC` displayed a melting point of 99 to 101 °C.

The compound `N#Cc1c[nH]c2cc(Cl)c([N+](=O)[O-])cc2c1=O` displayed a melting point above 300 °C.

`CC(C)c1cccc(C(C)C)c1NC(=O)NCC1(S(=O)(=O)c2ccccc2)CCCC1` registered a melting point of 124 °C.

Regarding `COCOc1ccc(-c2ccc(-c3ccc(C(=O)O)cc3)cc2-c2ccc3c(c2)C(C)(C)CCC3(C)C)cc1`, the melting point lay within 249 to 251 °C.

Compound `CCOC(=O)C(=O)N(CCOS(C)(=O)=O)N=Cc1ccccc1` yielded a melting point of 93 to 95 °C.

In turn, `O=C(O)c1ccc(NC(=O)c2ccccc2-c2ccccc2)cc1Cl` had a melting point of 217 to 219 °C.

The compound `COc1ccc(NC(=O)N=C2CCCN2C)cc1OC` gave a melting point of 118 to 120 °C.

Compound `Cc1cccc(-c2[nH]c(C(C)C)nc2-c2ccc(F)c(-c3ccc(S(C)(=O)=O)cc3)c2)n1` came in with a melting point of 113 to 115 °C.

As for `O=c1[nH]c2ncc(-c3ccc(-c4n[nH]c(CO)n4)cc3)nc2n1CC1CCOCC1`, the melting point lay within 258 to 260 °C.

As for `CCS(=O)(=O)c1ccc(C(CC2CCCC2)C(=O)O)cc1` (configuration not stated), the melting point is 137 to 138 °C.

Consider `CCN(CC)C(C)CN(c1c(C)cccc1C)S(C)(=O)=O` (configuration not stated), for which the melting point lay in the range of 58 to 60 °C.

`O=C(O)c1cnn2c(-c3cccc(C(F)(F)F)c3)ccnc12` gave a melting point of 248 to 250 °C.

Compound `Cc1cc(C)c(C(C)(CO)c2ccc(C(C)C)cc2)c(O)c1C` (configuration not stated) displayed a melting point of 116 to 117 °C.

In turn, `COc1ccc2c3c1OC1C(=O)C(C)(C)C(C)C4C(C2)N(C)CCC314` (configuration not stated) yielded a melting point of 246 to 248 °C.

`CCC(=O)Nc1nc(-c2cc(C)cc(C)c2)c(-c2ccncc2)s1` yielded a melting point of 291 to 293 °C.

`CS(=O)(=O)c1ccc(-n2cnc(Cl)c2-c2ccc(Cl)nc2)cc1` showed a melting point of 223 °C.

Regarding `CC(C)(C)c1ccc2sc3cc(C#N)ccc3c(=O)c2c1`, the melting point was 181 to 184 °C.

`CC(=O)NNC(=S)Nc1cc(C)ccc1Cl` displayed a melting point of 145 to 157 °C.

For `COC(=O)c1ccc(/C=C/c2cnc3ccccc3c2)cc1`, the melting point was 92 to 94 °C.

`CC(Cc1c[nH]c2ccccc12)(NC(=O)OC1CCCCC1Cl)C(=O)NCCc1ccccc1` (configuration not stated) came in with a melting point of 69 to 78 °C.

Turning to `COC(=O)C(O)(c1ccc(Cl)c(Cl)c1)c1ccc(Cl)c(Cl)c1`, the melting point is 69 °C.

`CSc1cc(-c2ccccc2)ccc1C1=NC(C)(C)CO1` had a melting point of 93 to 95 °C.

For `O=C(O)c1cn(Cc2ccc(OCc3csc(-c4ccccc4)n3)cc2)nc1-c1ccccc1`, the melting point was 119 to 120 °C.

Regarding `COc1cccc(C2(O)CCC(=O)CC2)c1`, the melting point fell in the range of 105 to 108 °C.

Turning to `O=C(O)COc1cccc(CCc2nc(-c3ccccc3)c(-c3ccccc3)s2)c1`, the melting point lay within 118 to 120 °C.

As to `CCCCOc1ccc(OCCN2CCN(c3cc(Cl)nnc3Cl)CC2)cc1`, the melting point was 135 to 136 °C.

Compound `O=C(O)[C@@H]1CCC(=O)N1C(=O)CCC1CCCC1` came in with a melting point of 135 to 138 °C.

Take `O=[PH]1Oc2ccccc2-c2ccccc21` (configuration not stated): the melting point was found to be 116 °C.

Consider `NC(=O)c1ccccc1N1CCOCC1`, for which the melting point lay in the range of 112 to 119 °C.

Compound `Cc1oc(-c2ccccc2)nc1COc1cccc(COc2ccccc2CC(=O)O)c1` returned a melting point of 117 to 118 °C.

`CC(=O)NN=C(C)c1ccc(C)nc1` returned a melting point of 178 °C.

Compound `CCOC(=O)C(=Cc1cc(OC)c(OC)cc1OC)C(=O)OCC` gave a melting point of 86 to 87 °C.

Consider `C=CCn1c(=O)ccc2cc(F)c(-n3c(=O)cc(C(F)(F)F)n(C)c3=O)cc21`, for which the melting point lay in the range of 178 to 179 °C.

`O=C(Nc1cc2ncc(CN3CCCC3)cc2cc1F)c1ccc(-c2ccccc2)cc1F` showed a melting point of 163 to 164 °C.

`O=c1[nH]c2cc(Cl)c(S(=O)CCN3CCC(Cc4ccc(F)cc4)CC3)cc2o1` (configuration not stated) came in with a melting point of 199 to 200 °C.

In turn, `CC(=Nc1ccccc1C(C)C)Nc1ccccc1C(C)C` came in with a melting point of 94 to 96 °C.

`O=C(c1ccc(F)cc1C(F)(F)F)N1Cc2cccn2Cc2ccccc21` had a melting point of 154 to 155 °C.

`ClCCN1c2cc3c(cc2C(c2cccs2)=NCC1CCl)OCCO3` (configuration not stated) returned a melting point of 184 to 187 °C.

Consider `COc1ccc(CONCc2ccc(OC)cc2OC)cc1`, for which the melting point fell in the range of 52 to 55 °C.

Turning to `COC(=O)c1ccc(CN2CCOc3ccc(NC(=O)CC4CCCC4)cc32)c(OC)c1`, the melting point lay in the range of 152 to 153 °C.

In turn, `CCOC(=O)CC(=O)Nc1ccc([N+](=O)[O-])cc1` registered a melting point of 102 to 103 °C.

As to `Cc1nc2c(s1)-c1nc(Nc3ccc(N4CCOCC4)cc3)ncc1CC2`, the melting point was in the range of 236 to 237 °C.
